Assays:
[1] = design: method as in earlier work; conditions: healthy subjects, ref 43 (Di Pede et al.), cited from earlier work; for Cmax: human plasma, after PACs intake, read-out: C MAX (mean ± SD) in plasma; for average urinary excretion (% of ingested dose): human urine
[2] = In vitro transport study across 21‐day Caco2 monolayers; type: in vitro ADME, human; conditions: human, Caco-2, Caco2 model, N = 4; for Papp A→B at 120 min: absorptive direction, read-out: P app A–B (mean ± SD); for Papp A→B at 120 min / Papp B→A at 120 min: VL 50 μM dosed (VLS formed as metabolite), controls 10 μM; for Papp B→A at 120 min: secretory direction, read-out: P app B–A (mean ± SD); for efflux ratio at 120 min: Papp(B−A)/Papp(A−B), read-out: Efflux ratio (mean ± SD)
Method: (§1) Caco2 cells between passage numbers 42–50 and MDCK cells between passage numbers 21–26 were used for transport studies; the assay was conducted as reported by Volpe^[ [33] ^] with slight modifications. Transport experiments were performed in 12‐well Transwell plates. Caco2 cells were seeded at a density of 60,000 cells/cm^2 and grown for 21 days, with change of media every 3 days, while MDCK cells were seeded at a density of 70,000 cells/cm^2 and grown for 5 days, changing the medium daily. The physiological and morphological formation of a confluent monolayer was evaluated by measuring the TEER value: Caco2 monolayers became confluent 1 week after seeding with TEER values greater than 450 Ω/cm^2, while MDCK monolayers became confluent 24 h after seeding with TEER values greater than 90 Ω/cm^2. Phenol red and serum‐free DMEM/F12 medium was used as transport buffer. For bidirectional transport, VL (50 μM) and control compound (propranolol and paclitaxel, 10 μM) were added to the apical side to determine apical to basolateral transport (A–B; absorptive direction) and to the basal side to determine basolateral to apical transport (B–A; secretory direction). The volume of the apical and basolateral chambers was 0.5 and 1.5 mL, respectively. Aliquots of 120 μL were taken from the basolateral (for A–B transport) or the apical (for B–A transport) chamber at 30, 60, 90, and 120 min. An equal volume was replaced with a transport buffer at every time point. At the beginning and at the end of the experiment, an aliquot was also taken from the apical or basolateral chamber for analysis of the drug. To determine the integrity of monolayers, TEER values were measured before and after the experiment. In addition, at the end of the experiment cells were collected and lysed to evaluate the compound intake. Briefly, cells were washed twice with cold PBS and 200 µL of cold MeOH was added to detach and lysate the cells; subsequently, cells were collected into lo‐bind Eppendorf and sonicated in ice for 10 min, then centrifuged for 15 min at 4°C at 14,000 rpm (Eppendorf Centrifuge 5430 R). The supernatant was collected and used for further analysis.
(§2) The apparent permeability P app (cm/s) of compounds was calculated from the following equation (Equation 1), while P app (cm/s) of the metabolites was calculated from the equation (Equation 2): (1) Papp=dQ/dt×1/C×1/A.
(§3) Equation (1) for calculating P app (cm/s) of tested reference compounds. (2) Papp=Metabolic cleareance/A.
(§4) Equation (2) for calculating P app (cm/s) of compound metabolites.
(§5) with Metabolic cleareance=Rate of metabolism/C and where dQ/dt is the rate of transport, C is the initial concentration in the donor compartment, and A is the surface area of the filter. To quantify the rate of transport, cumulative amounts of test compounds were plotted against time (min).
(§6) Efflux ratio was calculated using the following equation (Equation 3)^[ [48] ^]: (3) Efflux ratio=Papp(B−A)/Papp(A−B).

Caco2 monolayers = assay: as above; type: in vitro ADME, human; conditions: Caco2 model, VL 50 μM dosed (VLS formed as metabolite), controls 10 μM, N = 4; for P app A–B (mean ± SD): absorptive direction; for P app B–A (mean ± SD): secretory direction
Method: as §1, §2, §3, §4, §5, §6

[3] = In vitro transport study across 5‐day Wt‐MDCK monolayers; type: in vitro ADME, canine; conditions: dog, Wt‐MDCK model, N = 4; for Papp A→B at 120 min: absorptive direction, read-out: P app A–B (mean ± SD); for Papp A→B at 120 min / Papp B→A at 120 min: VL 50 μM dosed (VLS formed as metabolite), controls 10 μM; for Papp B→A at 120 min: secretory direction, read-out: P app B–A (mean ± SD); for efflux ratio at 120 min: Papp(B−A)/Papp(A−B), read-out: Efflux ratio (mean ± SD)
Method: as §1, §2, §3, §4, §5, §6

Wt‐MDCK monolayers = assay: as above; type: in vitro ADME, canine; conditions: Wt‐MDCK model, VL 50 μM dosed (VLS formed as metabolite), controls 10 μM, N = 4; for P app A–B (mean ± SD): absorptive direction; for P app B–A (mean ± SD): secretory direction
Method: as §1, §2, §3, §4, §5, §6

PXR = target: T1, PXR (Homo sapiens, UniProt O75469); type: cell-based; design: expressed in transfected cells; host or cells: HepG2 and LS174T cells, transient electroporation; conditions: HepG2 cells, 10 µM
T1 sequence (O75469 1-434): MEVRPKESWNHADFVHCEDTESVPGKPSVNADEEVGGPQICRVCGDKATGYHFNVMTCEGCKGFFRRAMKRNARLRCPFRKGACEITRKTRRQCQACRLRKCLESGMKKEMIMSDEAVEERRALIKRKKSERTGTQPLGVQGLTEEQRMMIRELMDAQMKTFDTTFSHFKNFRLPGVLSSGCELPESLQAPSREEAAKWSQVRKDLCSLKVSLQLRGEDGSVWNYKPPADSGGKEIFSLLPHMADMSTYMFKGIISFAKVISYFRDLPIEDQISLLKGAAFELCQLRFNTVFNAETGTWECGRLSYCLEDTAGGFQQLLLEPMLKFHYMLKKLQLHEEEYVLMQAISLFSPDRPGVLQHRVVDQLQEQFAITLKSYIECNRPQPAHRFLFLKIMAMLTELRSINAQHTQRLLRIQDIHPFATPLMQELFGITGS
Method: The PXR activation potential of VL was determined in transiently transfected HepG2 and LS174T cells as described earlier.^[ [50] ^] In brief, 24‐h‐old cells having 70%−80% confluency were trypsinized and transfected with pSG5‐hPXR (25 μg) and PCR‐5 (25 μg) plasmid DNA by electroporation at 180 V (1 pulse for 70 ms). Cells were incubated at room temperature for 8 min and floating dead cells were carefully removed. Cells were seeded in 96‐well plates at a density of 50,000 cells/well. […] Following 24 h of incubation, the culture medium was aspirated and 40 μL of luciferase reagent (Promega Corporation) was added to each well. Luminescence was measured using a Spectramax M5 plate reader (Molecular Devices) and the fold increase in luciferase activity among sample‐treated cells was calculated in comparison with the vehicle‐treated (DMSO) cells.

P‐gp = assay: Rhodamine‐123 uptake assay, induction (48 h), differentiated Caco2 cells; type: cell-based, human; conditions: 10 µM, 48 h treatment; 0.1% DMSO vehicle control = 100%
Method: P‐gp modulation was determined in differentiated Caco2 cells by Rh‐123 uptake assay.^[ [49] ^] In brief, cells in the logarithmic growth phase with 70%–80% confluency were harvested and seeded at a density of 2 × 10^4/well of a 96‐well plate. Cells were allowed to grow for 21 days in a CO2 incubator changing the medium every other day.
After treatment, cells were washed with Hank's buffer and 200 μL of phenol, and serum‐free DMEM/F12 medium containing […] of Rh‐123 was added and cells were incubated for 90 min. The final steps were as described previously.

Wt‐MDCK cells = assay: MTT cell viability assay; type: cell-based, canine; conditions: 20 μM, data not shown
Method: (§7) The effect of test samples on cell viability was measured using an MTT assay. Briefly, exponentially growing 2 × 10^4 cells/200 μL were seeded in 96‐well plates and allowed to grow until reaching their differentiation state. Cells were treated with different concentrations of VL (50–1.6 µM) and positive control camptothecin (30–1 μM) serially diluted in serum‐free medium. After incubation, 10 μL of MTT dye (5 mg/mL stock in PBS) was added to each well, and plates were additionally incubated for 4 h. Further, media were aspirated, and cells were washed with 100 μL of phosphate buffer saline. The formazan blue crystals formed by viable cells were dissolved in 150 μL of DMSO, and the absorbance was measured at 580 nm on a Bio‐Tek, Synergy HT Multi‐Mode, plate reader. The % decrease in viability of sample‐treated cells was calculated compared with vehicle‐treated cells.^[ [46] ^]

HepG2 cells = assay: MTT cell viability assay; type: cell-based, human; conditions: HepG2, 20 μM, data not shown
Method: as §7

LS174T cells = assay: MTT cell viability assay; type: cell-based, human; conditions: 20 μM, data not shown
Method: as §7

Caco2 cells = assay: MTT cell viability assay; type: cell-based, human; conditions: Caco2, 20 μM, data not shown
Method: as §7

## O=C1CC[C@H](Cc2ccc(OS(=O)(=O)O)c(O)c2)O1 [3ʹ‐OH‐PVL‐4ʹ‐sulfate]
[1]
  Cmax: 368 ± 156 nM
  average urinary excretion (% of ingested dose): 11.3% ± 14.8%

## O=C1CC[C@H](Cc2ccc(O)c(OC3OC(C(=O)O)C(O)C(O)C3O)c2)O1 (stereo partly shown) [4ʹ‐OH‐PVL‐3ʹ‐glucuronide]
[1]
  Cmax: 229 ± 345 nM
  average urinary excretion (% of ingested dose): 3.1% ± 3.3%

## CC(=O)O[C@H]1C(=O)[C@@]2(C)[C@H]([C@H](OC(=O)c3ccccc3)[C@]3(O)C[C@H](OC(=O)[C@H](O)[C@@H](NC(=O)c4ccccc4)c4ccccc4)C(C)=C1C3(C)C)[C@]1(OC(C)=O)CO[C@@H]1C[C@@H]2O [Paclitaxel]
[2]
  Papp A→B at 120 min: 1.2 ×10⁻⁶ cm/s
  Papp B→A at 120 min: 3.42 ×10⁻⁶ cm/s
  efflux ratio at 120 min: 2.54 ± 2.06
Caco2 monolayers
  P app A–B (mean ± SD): 1.202 ×10⁻⁶ cm/s
  P app B–A (mean ± SD): 3.421 ×10⁻⁶ cm/s
[3]
  Papp A→B at 120 min: 5.18 ×10⁻⁶ cm/s
  Papp B→A at 120 min: 2.95 ×10⁻⁶ cm/s
  efflux ratio at 120 min: 0.55 ± 0.089
Wt‐MDCK monolayers
  P app A–B (mean ± SD): 5.183 ×10⁻⁶ cm/s
  P app B–A (mean ± SD): 2.952 ×10⁻⁶ cm/s

## CC(C)NCC(O)COc1cccc2ccccc12 (stereo not shown) [Propranolol]
[2]
  Papp A→B at 120 min: 15.4 ×10⁻⁶ cm/s
  Papp B→A at 120 min: 13 ×10⁻⁶ cm/s
  efflux ratio at 120 min: 0.859 ± 0.085
Caco2 monolayers
  P app A–B (mean ± SD): 15.39 ×10⁻⁶ cm/s
  P app B–A (mean ± SD): 12.96 ×10⁻⁶ cm/s
[3]
  Papp A→B at 120 min: 10.1 ×10⁻⁶ cm/s
  Papp B→A at 120 min: 5.36 ×10⁻⁶ cm/s
  efflux ratio at 120 min: 0.535 ± 0.058
Wt‐MDCK monolayers
  P app A–B (mean ± SD): 10.05 ×10⁻⁶ cm/s
  P app B–A (mean ± SD): 5.364 ×10⁻⁶ cm/s

## CO[C@H]1/C=C/O[C@@]2(C)Oc3c(C)c(O)c4c(O)c(c(/C=N/N5CCN(C)CC5)c(O)c4c3C2=O)NC(=O)/C(C)=C\C=C\[C@H](C)[C@H](O)[C@@H](C)[C@@H](O)[C@@H](C)[C@H](OC(C)=O)[C@@H]1C [RIF, rifampicin, reference compound]
PXR
  PXR activation: 3.4 folds
P‐gp
  intracellular accumulation of Rh‐123: 75%

## CC[C@@]1(O)C(=O)OCc2c1cc1n(c2=O)Cc2cc3ccccc3nc2-1 [camptothecin]
Wt‐MDCK cells
  effect on cell viability: dramatically reduced the viability
HepG2 cells
  effect on cell viability: dramatically reduced the viability
LS174T cells
  effect on cell viability: dramatically reduced the viability
Caco2 cells
  effect on cell viability: dramatically reduced the viability

## COc1cccc2c1C(=O)c1c(O)c3c(c(O)c1C2=O)C[C@@](O)(C(=O)CO)C[C@@H]3O[C@H]1C[C@H](N)[C@H](O)[C@H](C)O1 [doxorubicin]
Wt‐MDCK cells
  effect on cell viability: dramatically reduced the viability
HepG2 cells
  effect on cell viability: dramatically reduced the viability
LS174T cells
  effect on cell viability: dramatically reduced the viability
Caco2 cells
  effect on cell viability: dramatically reduced the viability

— paper PMC11726150, “Pre‐ADMET studies of 5‐(3′,4′‐dihydroxyphenyl)‐γ‐valerolactone, the bioactive intestinal metabolite of proanthocyanidins” (Archiv Der Pharmazie, 2024)
